Data as given in patent US20250120928A1 (University of Maryland, Baltimore, priority 2021, published 2025).

What was measured:
[1] = test system: LPS-induced endotoxemia mouse model; assay: Plasma cytokine analysis in the LPS-induced endotoxemia mouse model; assay type: in vivo, male C57BL/6J mice; conditions: 50 mg/kg i.p. 3 hours before 20 mg/kg LPS i.p.; blood 3 hours post-LPS
Method: Terminal cardiac blood draws from the left ventricle occurred 3 hours post LPS injections using a 25 g needle and 1 mL syringe into an EDTA coated lavender blood collection tube (BD Medical, Franklin Lakes, NJ). Blood samples were centrifuged at 1000×g for 10 minutes within 30 minutes of collection. Plasma was extracted and diluted 10,000-fold for ELISA IL-6 measurement and diluted 10-fold for TNFα measurements.
Terminal cardiac blood draws from the left ventricle occurred 3 hours post LPS injections using a 25 g needle and 1 mL syringe into an EDTA coated lavender blood collection tubes (BD Medical, Franklin Lakes, NJ). Blood samples were centrifuged at 1000×g for 10 minutes within 30 minutes of collection. Plasma was extracted and diluted 10,000-fold for ELISA IL-6 measurement and diluted 10-fold for TNFα measurements. MAGPIX Luminex bead-based multiplex ELISA (Thermo Fisher Scientific, Waltham, MA) of mouse plasma (diluted 100-fold) measured for 26 various cytokines and chemokines and data was analyzed using the Luminex xPONENT software (Millipore) as per manufacturer's instructions. The 26-plex panel include murine IL-1β, IL-2, IL-4, IL-5, IL-6, IL-9, IL-10, IL-12p70, IL-13, IL-17A (CTLA-8), IL-18, IL-22, IL-23, IL-27, GM-CSF, IFNγ, TNFα, MCP-1 (CCL2), MIP-1α (CCL3), MIP-10 (CCL4), RANTES (CCL5), MCP-3 (CCL7), Eotaxin (CCL11), GROα (CXCL1), MIP-2a (CXCL2), and IP-10 (CXCL10).

[2] = test system: B cells (B220+) isolated from splenocytes; assay: Splenocyte apoptosis and cell death by AV/PI flow cytometry, B cells; assay type: cell-based
Method: Splenocytes were isolated from spleens as previously described. Briefly, 5-12-week C57BL/6J female mice were euthanized and the spleen was isolated. The spleen was processed into single-cell suspensions using a 40 μm cell strainer and flushed with cold PBS supplemented with 1% FBS and 0.4% 0.5 M EDTA (Quality Biological, Gaithersburg, MD). Erythrocytes were lysed with ACK lysis buffer (Quality Biological, Gaithersburg, MD). […] Subsequently, splenocytes were stimulated with 100 ng/mL LPS for 24 hours. Splenocytes were then washed with cold PBS supplemented with 1% FBS and 0.4% 0.5 M EDTA and FcR blocked, as previously mentioned. Splenocytes were then stained with purified anti-mouse PE/Cyanine7 CD45R/B220 antibody (#103222) (BioLegend, San Diego, CA) for the B cell population. SAHA and SAHA-OH apoptosis and cell death were then assessed using the FITC-AV Apoptosis Detection Kit with PI via flow cytometry, as previously mentioned. Flow cytometry data were collected using a Cytex Aurora flow cytometer. Flow plots and data processing was done using FCS Express 7 Flow Cytometry De Novo Software (De Novo, Glendale, CA).

[3] = test system: T cells (CD3+) from splenocytes; assay: Splenocyte apoptosis and cell death by AV/PI flow cytometry, T cells; assay type: cell-based; conditions: concentrations up to 30 μM
spleen and liver = assay: Hematoxylin and eosin (H&E) histology of spleen and liver, LPS-induced endotoxemia mice; assay type: in vivo, male C57BL/6J mice; conditions: 50 mg/kg i.p. 3 hours before 20 mg/kg LPS; 3 hours post-LPS
Method: The differences in tissue architecture of liver and spleen were assessed using the same cohort of mice as the cytokine analysis at 3 hours post-LPS administration. Prior to tissue harvest, whole-body perfusion was performed post-cardiac blood draw by slowly flushing 10 mL of 37° C. PBS through the left ventricle of the heart while a cut in the right atrium allowed for the flow of blood. The liver and spleen were harvested, placed into tissue cassettes (VWR, Radnor, PA), and fixed overnight in 10% buffered formalin (Sigma-Aldrich, St. Louis, MO). The following day, the organs were paraffin-embedded and sectioned into 5 μm slices. Slides were stained for H&E to define histological architecture using standard procedures.
The differences in tissue architecture of liver and spleens were assessed at 3 hours post-LPS administration. Prior to tissue harvest, whole body perfusion was performed by slowly flushing 10 mL of 37° C. PBS through the left ventricle of the heart while a cut in the right atrium allowed for the flow of blood. The liver and spleen were harvested, placed into tissue cassettes, and fixed overnight in 10% buffered formalin. The following day, the organs were paraffin embedded and sectioned in 5 μm slices. Slides were stained for H&E to define histological architecture using standard procedures.

[4] = test system: LPS-stimulated bone marrow macrophages (BMMØ); assay: BMMØ cytokine secretion following LPS stimulation (ELISA, Luminex); assay type: cell-based, C57BL/6J mice
Method: (§1) Three hours later, cells were stimulated with 100 ng/mL LPS. After 48 hours, cell culture supernatants were collected and analyzed by enzyme-linked immunosorbent assays (ELISA) (BioLegend, San Diego, CA) to measure murine IL-6 and TNFα. MAGPIX Luminex bead-based multiplex ELISA (Thermo Fisher Scientific, Waltham, MA) measured for 7 various cytokines and chemokines, and data were analyzed using the Luminex xPONENT software (Millipore) as per manufacturer's instructions. The 7-plex panel included murine IFNβ, IL-10, IL-6, IL-1β, MCP-1 (CCL2), TNFα, and GROα (CXCL1).
as §1, with “After” for “Three hours later, cells were stimulated with 100 ng/mL LPS. After”, “(Milli-pore)” for “(Millipore)”, “TL-6,” for “IL-6,”

BMMØs [5] = assay type: cell-based
Method: (§2) Three hours later, cells were stimulated with 100 ng/mL LPS. After 48 hours, cells were lifted using Versene and washed with cold PBS supplemented with 1% FBS and 0.4% 0.5 M EDTA (Quality Biological, Gaithersburg, MD). FcR blocking was performed with purified anti-mouse CD16/32 antibody (#101301) (Biolegend, San Diego, CA) prior to staining with Annexin V-FITC and propidium iodide kit (#640914) (BioLegend, San Diego, CA) for apoptosis and cell death. Cell staining was conducted according to BioLegend protocols for flow cytometry. Flow cytometry data were collected using a Becton Dickinson LSR II or Becton Dickinson Canto II flow cytometer. Flow plots and data processing was done using FCS Express 7 Flow Cytometry De Novo Software (De Novo, Glendale, CA).
as §2, with “After” for “Three hours later, cells were stimulated with 100 ng/mL LPS. After”

BMMØs [6] = assay: Western blot analysis of acetyl-histone H3 and acetyl-α-tubulin; conditions: 10 μM, unstimulated BMMØs, 4 and 9 hours
Method: Day 8 BMMØs were seeded at 1×10^6 cells/well in sterile 6-well plates incubated at 37° C. and 5% CO2 overnight to allow for cell adherence. […] Cells were lysed with Halt™ Protease Inhibitor Cocktail (Cat #78429) (Thermo Fisher, Waltham MA) in RIPA Buffer (Cat #R0278) (Sigma-Aldrich, St. Louis, MO) and scraped with a cell scraper (VWR, Radnor, PA). Lysates were sonicated with a ⅛^th needle tip using a Cole-Parmer 500-Watt Ultrasonic Homogenizer at 40% amplitude for 10 seconds on ice. Lysates were then centrifuged at 4° C. for 20 minutes at 12,000×g. The supernatant was collected and frozen at −80° C. until ready for western blot analysis. Protein lysates were produced using 50/50 sample to 2×SDS/PAGE sample buffer. Proteins were then separated by SDS/PAGE and immunoblotted using Histone H3 (D1H2) XP, Acetyl-Histone H3 (lys9/Lys14), α-Tubulin (11H10), Acetyl-α-Tubulin (Lys40) (D20G3) XP and β-Actin as primary antibodies. ECL was used for detection.
Day 8 BMMØs were seeded at 1×10^6 cells/well in sterile 6-well plates incubated at 37° C. and 5% CO2 overnight to allow for cell adherence. […] Cells were lysed with Halt™ Protease Inhibitor Cocktail (Cat #78429) (Thermo Fisher, Waltham MA) in RIPA Buffer (Cat #R0278) (Sigma-Aldrich, St. Louis, MO) and scraped with a cell scraper (VWR, Radnor, PA). Lysates were sonicated with a ⅛th needle tip using a Cole-Parmer 500-Watt Ultrasonic Homogenizer at 40% amplitude for 10 seconds on ice. Lysates were then centrifuged at 4° C. for 20 minutes at 12,000×g. The supernatant was collected and frozen at −80° C. until ready for western blot analysis. Protein lysates were produced using 50/50 sample to 2×SDS/PAGE sample buffer. Proteins were then separated by SDS/PAGE and immunoblotted using Histone H3 (D1H2) XP, Acetyl-Histone H3 (Lys9/Lys14), α-Tubulin (11H10), Acetyl-α-Tubulin (Lys40) (D20G3) XP and β-Actin as primary antibodies. ECL was used for detection.

HDAC1, 2, 3 = conditions: comparison value for Tubastatin A; read-out: IC50 against HDAC1, 2, 3; cited from earlier work
[7] = 0-30 μM for 3 hours, then LPS 100 ng/mL 48 hours, ELISA

Compound | reduction of plasma IL-6 [1] | reduction of plasma TNFα [1] | toxicity profile for the B cell population ([2]; 0-30 μM) | B cell death (AV+/PI+) ([2]; 10 μM, 24 hours) | B cell viability (AV−/PI−) ([2]; 10 μM, 24 hours) | toxicity for the T cell population [3] | spleen tissue architecture (H&E) (spleen and liver) | IL-6 cytokine secretion [4, 7] | TNFα cytokine secretion [4, 7] | MCP-1 cytokine secretions ([4]; 10 μM, 3 hours before 48-hour LPS) | secretion of IL-10 ([4]; 10 μM, 3 hours before 48-hour LPS, Luminex, SAHA compared to SAHA-OH) | apoptosis (AV+/PI−) over concentration (BMMØs [5]; 0-30 μM) | viability (AV−/PI−) over concentration (BMMØs [5]; 0-30 μM) | apoptosis (AV+/PI−) (BMMØs [5]; 10 μM, 48 hours) | cellular viability (AV−/PI−) (BMMØs [5]; 10 μM, 48 hours) | acetylation of α-tubulin (BMMØs [6]) | IC50 (HDAC1, 2, 3)
O=C(CCCCCCC(=O)Nc1ccccc1)NO [SAHA, N^1-hydroxy-N^8-phenyloctanediamide, reference compound] | about 50% | about 50% | concentration-dependent toxicity profiles | 54.8% | 9.5% | minimal toxicity | moderate histological disorganization | concentration-dependent reduction | concentration-dependent reduction | non-significantly affected | increased secretion | apoptosis induction | concentration-dependent viability reduction | 96.8% | 3.1% | similarly resulted in the acetylation | 
